The record followed here is patent US9249104B2, “Pyrazole indanyl carboxamides” (BAYER CROPSCIENCE AG, priority 2012, dated 2016).

Molecules are shown by their SMILES.

The subject of data set [1] is Puccinia recondita. The data set can be described thus: In vivo preventive test on Puccinia recondita (brown rust on wheat). The following applies: 500 ppm, wheat plants sprayed 24 h before contamination, graded 12 days after contamination. On the procedure: Wheat plants (“Scipion” variety), sown in starter cups on a 50/50 peat soil-pozzolana substrate and grown at 22° C., are treated at the 1-leaf stage (10 cm height) by spraying with the active ingredient prepared as described above. Plants, used as controls, are treated with the mixture of acetone/tween/DMSO/water not containing the active material. After 24 hours, the plants are contaminated by spraying the leaves with an aqueous suspension of Puccinia recondita spores (100 000 spores per ml). The spores are collected from an infected plant and are suspended in water to containing 2.5 ml/l of Tween 80 at 10%. […] Grading (% of efficacy) is carried out 12 days after the contamination, in comparison with the control plants.

Data set [2] concerns Septoria tritici. The data set can be described thus: In vivo preventive test on Septoria tritici (leaf spot on wheat). As to conditions: 500 ppm, wheat plants sprayed 24 h before contamination, graded 24 days after contamination. Here is the method:
Wheat plants (“Scipion” variety), sown in starter cups on a 50/50 peat soil-pozzolana substrate and grown at 22° C., are treated at the 1-leaf stage (10 cm height) by spraying with the active ingredient prepared as described above. Plants, used as controls, are treated with the mixture of acetone/tween/DMSO/water not containing the active material. After 24 hours, the plants are contaminated by spraying the leaves with an aqueous suspension of cryopreserved Septoria tritici spores (500 000 spores per ml). The contaminated wheat plants are incubated for 72 hours at 18° C. and at 100% relative humidity, and then for 21 days at 90% relative humidity. Grading (% of efficacy) is carried out 24 days after the contamination, in comparison with the control plants.

Data set [3] relates to Sphaerotheca fuliginea. The data set can be described thus: In vivo preventive test on Sphaerotheca fuliginea (powdery mildew on cucurbits). The following applies: 500 ppm, gherkin plants sprayed 24 h before contamination, graded 12 days after contamination. On the procedure: Gherkin plants (“Vert petit de Paris” variety), sown in starter cups on a 50/50 peat soil-pozzolana substrate and grown at 24° C., are treated at the Z11 cotyledon stage by spraying with the active ingredient prepared as described above. Plants, used as controls, are treated with the mixture of acetone/tween/DMSO/water not containing the active material. After 24 hours, the plants are contaminated by spraying the cotyledons with an aqueous suspension of Sphaerotheca fuliginea spores (100 000 spores per ml). The spores are collected from infected plants. […] Grading (% of efficacy) is carried out 12 days after the contamination, in comparison with the control plants.

Data set [4] can be described thus: logP by HPLC on reversed phase columns (EEC directive 79/831 Annex V.A8). Format: physicochemical. The following applies: method [a]: LC-MS at pH 2.7, 0.1% formic acid in water / acetonitrile; compounds of formula (I), Table 1.
For data set [5], the system named is Uromyces appendiculatus. Kind of data set: In vivo preventive test on Uromyces appendiculatus (bean rust). As to conditions: preventive, bean plants, dose of 500 ppm, grading 11 days after contamination. On the procedure: Bean plants (“Saxa” variety), sown in starter cups on a 50/50 peat soil-pozzolana substrate and grown at 24° C., are treated at the 2-leaf stage (9 cm height) by spraying with the active ingredient prepared as described above. Plants, used as controls, are treated with the mixture of acetone/tween/DMSO/water not containing the active material. After 24 hours, the plants are contaminated by spraying the leaves with an aqueous suspension of Uromyces appendiculatus spores (150 000 spores per ml). The spores are collected from infected plants and are suspended in water containing 2.5 ml/1 of Tween 80 at 10%. […] Grading (% of efficacy) is carried out 11 days after the contamination, in comparison with the control plants.

For data set [6], the system named is Alternaria brassicae. The data set can be described thus: In vivo preventive test on Alternaria brassicae (leaf spot on radish). As to conditions: 500 ppm, radish plants sprayed 24 h before contamination, graded 6 days after contamination. Here is the method: Radish plants (“Pernod Clair” variety), sown in starter cups on a 50/50 peat soil-pozzolana substrate and grown at 17° C., are treated at the cotyledon stage by spraying with the active ingredient prepared as described above. Plants, used as controls, are treated with the mixture of acetone/tween/DMSO/water not containing the active material. After 24 hours, the plants are contaminated by spraying the cotyledons with an aqueous suspension of Alternaria brassicae spores (50 000 spores per ml). The spores are collected from a 15-day-old culture. The contaminated radish plants are incubated at 20° C. and at 100% relative humidity. Grading (% of efficacy) is carried out 6 days after the contamination, in comparison with the control plants.

As to `CON=C1c2cccc(NC(=O)c3cn(C)nc3C(F)(F)F)c2CC1(C)C` (mixture of isomers) [Example 30], the figures for the Eff. % in data set [1], in data set [2] and in data set [3] were 86%, 100% and 98%, respectively.

Regarding `CON=C1c2cccc(NC(=O)c3c(C)nn(C)c3F)c2CC1(C)C` (mixture of isomers) [Example 34], the Eff. % in data set [1] is 71%.

For `CON=C1c2cccc(NC(=O)c3c(C)nn(C)c3C)c2CC1(C)C` (mixture of isomers) [Example 35], the Eff. % in data set [1] was determined as 79%.

Take `Cc1c(C(=O)Nc2cccc3c2CC(C(C)C)C3(C)C)cnn1C` (racemic) [Example 62]: the logP in data set [4] is 3.73[a]. In addition, the Eff. % is given as 81% in data set [1] and 99% in data set [5].

Take `CCC1Cc2c(NC(=O)c3c(C)nn(C)c3Cl)cccc2C1(C)C` (racemic) [Example 68]: in data set [4], the logP was 4.32[a]. The Eff. % in data set [6] is recorded as 75%; in data set [1], 100%; in data set [5], 100%.

In the case of `CCC1(CC)Cc2c(NC(=O)c3c(C)nn(C)c3F)cccc2C1C` (racemic) [Example 70], in data set [4], the logP is 4.32[a]. Moreover, the Eff. % came to 98% in data set [1], 98% in data set [3] and 100% in data set [5].

Take `Cc1c(C(=O)Nc2cccc3c2CC(C)C3(C)C)cnn1C` (racemic) [Example 71]: in data set [4], the logP is 3[a]. In addition, the Eff. % in data set [1] was determined as 81%; in data set [2], 97%; in data set [5], 79%.

Consider `CCc1nn(C)cc1C(=O)Nc1cccc2c1CC(C)C2(C)C` (racemic) [Example 73], for which the logP in data set [4] is 3.27[a]. In addition, the Eff. % in data set [1] is 88%; in data set [5] it was 100%.

With `CCC1(CC)Cc2c(NC(=O)c3cn(C)nc3C(F)(F)F)cccc2C1C` (racemic) [Example 74], in data set [4], the logP was 4.46[a]. In addition, the Eff. % in data set [1] is reported as 98%; in data set [2], 94%; in data set [3], 98%; in data set [5] it was 100%.

Take `CC1Cc2c(NC(=O)c3cn(C)nc3I)cccc2C1(C)C` (racemic) [Example 75]: the logP in data set [4] was 3.64[a]. Besides, the Eff. % in data set [1] was determined as 98%; in data set [2], 79%; in data set [3], 78%; in data set [5], 100%.

As for `Cc1nn(C)c(Cl)c1C(=O)Nc1cccc2c1CC(C)C2(C)C` (racemic) [Example 80], the logP in data set [4] is 3.83[a]. For the same molecule, the Eff. % stood at 98% in data set [1] and 100% in data set [5].

As for `CC1Cc2c(NC(=O)c3c(C(F)(F)F)nn(C)c3F)cccc2C1(C)C` (racemic) [Example 83], the logP in data set [4] was 4.09[a]. Besides, the Eff. % is 98% in data set [1] and 100% in data set [5].

For `Cc1nn(C)c(C(F)F)c1C(=O)Nc1cccc2c1CC(C)C2(C)C` (racemic) [Example 87], the logP in data set [4] was 3.96[a]. Besides, the Eff. % came to 100% in data set [1], 92% in data set [2] and 100% in data set [5].

For the molecule `Cn1cc(C(=O)Nc2cccc3c2CC(O)C3)c(C(F)F)n1` (stereo not drawn) [Example 1], in data set [2], the Eff. % turned out to be 70%.

Regarding `CCc1nn(C)c(Cl)c1C(=O)Nc1cccc2c1CC(C)C2(C)C` (stereo not drawn) [Example 7], the logP in data set [4] is 4.31[a]. The Eff. % came to 96% in data set [1] and 100% in data set [5].

As for `CC1Cc2c(NC(=O)c3c(C(F)(F)F)nn(C)c3Cl)cccc2C1(C)C` (stereo not drawn) [Example 11], the logP in data set [4] was 4.26[a]. Besides, the results for the Eff. % in data set [1] and in data set [5] were 96% and 100%, respectively.

Consider `CCc1nn(C)c(F)c1C(=O)Nc1cccc2c1CC(C)(C)C2C` (stereo not drawn) [Example 14], for which, in data set [4], the logP was 3.99[a]. Also, the Eff. % in data set [1] is 98%; in data set [5] it was 100%.

In the case of `Cc1c(C(=O)Nc2cccc3c2CC(C)C3(C)C)c(C(F)(F)F)nn1C` (stereo not drawn) [Example 18], the logP in data set [4] was 3.83[a]. This molecule also gave an Eff. % in data set [1] of 75%.

For `CCCc1nn(C)cc1C(=O)Nc1cccc2c1CC(C)C2(C)C` (stereo not drawn) [Example 21], the logP in data set [4] was 3.64[a]. This molecule returned an Eff. % in data set [1] of 75%.

`CC1Cc2c(NC(=O)c3cnn(C)c3Cl)cccc2C1(C)C` (stereo not drawn) [Example 22]: the logP in data set [4] was 3.44[a]. The Eff. % is reported as 81% in data set [1] and 92% in data set [2].

In the case of `CC(C)c1nn(C)cc1C(=O)Nc1cccc2c1CC(C)C2(C)C` (stereo not drawn) [Example 23], the logP in data set [4] was 3.69[a]. Besides, the Eff. % in data set [1] stood at 81%; in data set [5], 89%.

As for `[2H]C1(C)Cc2cccc(NC(=O)c3cn(C)nc3C(F)F)c2C1` (stereo not drawn) [Example 26], in data set [4], the logP is 2.94[a]. Moreover, the Eff. % in data set [1] worked out at 100%; in data set [2], 100%; in data set [3] it was 89%; in data set [5], 100%.

Take `Cc1nn(C)c(C)c1C(=O)Nc1cccc2c1CC(C(C)C)C2(C)C` (stereo not drawn) [Example 42]: the logP in data set [4] was 3.87[a]. Further, the Eff. % in data set [1], in data set [3] and in data set [5] was 100% each time.

For the molecule `Cc1nn(C)c(C)c1C(=O)Nc1cccc2c1CC(C)(C)C2` [Example 43], in data set [4], the logP was 2.77[a]. Further, in data set [1], the Eff. % is 89%.

With `Cc1nn(C)c(F)c1C(=O)Nc1cccc2c1CC(C)(C)C2` [Example 44], the Eff. % stood at 78% in data set [1] and 98% in data set [5].

As for `Cn1cc(C(=O)Nc2cccc3c2CC(C)(C)C3)c(C(F)F)n1` [Example 45], the logP in data set [4] is 3.21[a]. In addition, the Eff. % is recorded as 98% in data set [1], 97% in data set [2], 100% in data set [3] and 100% in data set [5].

Take `CCCc1nn(C)c(F)c1C(=O)Nc1cccc2c1CC(CC)C2(C)C` (stereo not drawn) [Example 48]: the logP in data set [4] is 4.85[a]. In data set [3], this molecule showed an Eff. % of 94%.

Regarding `CCC1Cc2c(NC(=O)c3c(C(F)(F)F)nn(C)c3C)cccc2C1(C)C` (stereo not drawn) [Example 49], in data set [4], the logP was 4.3[a]. Further, the Eff. % in data set [1] was found to be 94%; in data set [5], 99%.

Take `CC1c2cccc(NC(=O)c3cn(C)nc3C(F)(F)F)c2CC1(C)C` (stereo not drawn) [Example 52]: in data set [4], the logP is 3.72[a]. For the same molecule, the Eff. % in data set [1] amounted to 100%; in data set [2], 94%; in data set [3], 98%; in data set [5], 100%.

For `Cc1c(C(=O)Nc2cccc3c2CC(C(C)C)C3(C)C)c(C(F)(F)F)nn1C` (stereo not drawn) [Example 54], in data set [4], the logP is 4.66[a]. Moreover, the Eff. % in data set [1] came out at 81%; in data set [5] it was 83%.

With `Cc1nn(C)c(C)c1C(=O)Nc1cccc2c1CC(C)(C)C2C` (stereo not drawn) [Example 55], the logP in data set [4] is 3.09[a]. Besides, the Eff. % in data set [1] is given as 100%; in data set [3] it was 88%; in data set [5], 100%.

For the molecule `CCC1Cc2c(NC(=O)c3cnn(C)c3C)cccc2C1(C)C` (stereo not drawn) [Example 59], the logP in data set [4] is 3.42[a]. For the same molecule, the Eff. % in data set [1] is 89%; in data set [5], 100%.

On to `Cc1nn(C)c(F)c1C(=O)Nc1cccc2c1CC(C)(C)C2C` (stereo not drawn) [Example 60], for which the logP in data set [4] is 3.5[a]. Besides, the Eff. % was 98% in data set [1], 98% in data set [3] and 100% in data set [5].
